Results on 25 compounds are retold here after patent publication US8431593B2, “Heteroaryl amide derivatives” (H. Lundbeck A/S, priority 2006, dated 2013).

The first assay has as its target T1, P2X7 receptor (Homo sapiens, UniProt Q99572).
T1 construct: host or cells: SH-SY5Y
T1 sequence (Q99572 1-595): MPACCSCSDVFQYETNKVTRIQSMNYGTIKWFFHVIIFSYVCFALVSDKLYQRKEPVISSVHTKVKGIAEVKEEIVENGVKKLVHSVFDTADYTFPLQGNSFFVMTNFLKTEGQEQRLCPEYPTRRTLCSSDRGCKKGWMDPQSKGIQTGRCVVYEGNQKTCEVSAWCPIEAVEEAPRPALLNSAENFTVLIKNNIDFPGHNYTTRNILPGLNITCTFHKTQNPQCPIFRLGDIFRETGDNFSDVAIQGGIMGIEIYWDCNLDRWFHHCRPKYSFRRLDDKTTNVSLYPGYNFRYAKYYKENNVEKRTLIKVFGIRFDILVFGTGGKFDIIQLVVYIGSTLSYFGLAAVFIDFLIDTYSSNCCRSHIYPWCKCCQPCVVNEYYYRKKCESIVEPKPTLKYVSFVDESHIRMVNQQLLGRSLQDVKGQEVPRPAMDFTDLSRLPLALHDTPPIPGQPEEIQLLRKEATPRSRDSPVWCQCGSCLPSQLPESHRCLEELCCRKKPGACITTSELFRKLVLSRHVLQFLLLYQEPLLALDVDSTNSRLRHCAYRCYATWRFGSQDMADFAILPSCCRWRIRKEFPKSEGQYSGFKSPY
The assay is described as follows: P2X7 calcium mobilization assay, high throughput, antagonist activity (Example 4A). It counts as cell-based.
Conditions: not given
The gist of the method: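 Antagonism was measured as calcium mobilization on FLIPR^TETRA after a 1 h room-temperature compound preincubation of dye-loaded cells. Baseline from no-agonist wells was subtracted from each well's maximum RFU.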
Consider `CCCN(CCC)C(=O)c1cn2c(C(=O)NC[C@@H]3CC[C@H]4C[C@@H]3C4(C)C)cccc2n1` [Compound 476, 5-N-{[(1S,2R,5S)-6,6-dimethylbicyclo[3.1.1]hept-2-yl]methyl}-2-N,2-N-dipropylimidazo[1,2-a]pyridine-2,5-dicarboxamide], for which the IC50 was below 2000 nM.
Regarding `CC1(C)CCCN(C(=O)c2cn3c(C(=O)NC[C@@H]4CC[C@H]5C[C@@H]4C5(C)C)cccc3n2)C1` [Compound 491, N-{[(1S,2R,5S)-6,6-dimethylbicyclo [3.1.1]hept-2-yl]methyl}-2-[(3,3-dimethyl-piperidin-1-yl)carbonyl]imidazo [1,2-a]pyridine-5-carboxamide], the IC50 was below 2000 nM.

The same assay, now with this note: 50% decrease in the fluorescence response of cells exposed to 80 μM 2′(3′)-O-(4-benzoyl-benzoyl)adenosine 5′-triphosphate; Example 4A; read-out: IC50.
For `CC(C)CN(C)C(=O)c1cn2c(C(=O)NC[C@@H]3CC[C@H]4C[C@@H]3C4(C)C)cccc2n1` [Compound 467, 5-N-{[(1S,2R,5S)-6,6-dimethylbicyclo[3.1.1]hept-2-yl]methyl}-2-N-isobutyl-2-N-methylimidazo[1,2-a]pyridine-2,5-dicarboxamide], the IC50 is below 2000 nM.
`CN(CC1OCCO1)C(=O)c1cn2c(C(=O)NC[C@@H]3CC[C@H]4C[C@@H]3C4(C)C)cccc2n1` [Compound 468, 5-N-{[(1S,2R,5S)-6,6-dimethylbicyclo[3.1.1]hept-2-yl]methyl}-2-N-(1,3-dioxolan-2-ylmethyl)-2-N-methylimidazo[1,2-a]pyridine-2,5-dicarboxamide]: the concentration for half-maximal inhibition (IC50) was below 2000 nM.
On to `CCN(C)C(=O)c1cn2c(C(=O)NC[C@@H]3CC[C@H]4C[C@@H]3C4(C)C)cccc2n1` [Compound 469, 5-N-{[(1S,2R,5S)-6,6-dimethylbicyclo[3.1.1]hept-2-yl]methyl}-2-N-ethyl-2-N-methylimidazo[1,2-a]pyridine-2,5-dicarboxamide], for which the IC50 is below 2000 nM.
Still for that read-out and setting: in the case of `CN(C)C(=O)c1cn2c(C(=O)NC[C@@H]3CC[C@H]4C[C@@H]3C4(C)C)cccc2n1` [Compound 470, 5-N-{[(1S,2R,5S)-6,6-dimethylbicyclo[3.1.1]hept-2-yl]methyl}-2-N,2-N-dimethylimidazo[1,2-a]pyridine-2,5-dicarboxamide] it was below 2000 nM; in that of `CCCCN(C)C(=O)c1cn2c(C(=O)NC[C@@H]3CC[C@H]4C[C@@H]3C4(C)C)cccc2n1` [Compound 471, 2-N-butyl-5-N-{[(1S,2R,5S)-6,6-dimethylbicyclo[3.1.1]hept-2-yl]methyl}-2-N-methylimidazo[1,2-a]pyridine-2,5-dicarboxamide], below 2000 nM.
The same measure, in the same setting: the same measure for `COC[C@@H]1CCCN1C(=O)c1cn2c(C(=O)NC[C@@H]3CC[C@H]4C[C@@H]3C4(C)C)cccc2n1` [Compound 473, N-{[(1S,2R,5S)-6,6-dimethylbicyclo[3.1.1]hept-2-yl]methyl}-2-{[(2S)-2-(methoxymethyl)pyrrolidin-1-yl]carbonyl}imidazo[1,2-a]pyridine-5-carboxamide]: below 2000 nM; for `CCCN(CC1CC1)C(=O)c1cn2c(C(=O)NC[C@@H]3CC[C@H]4C[C@@H]3C4(C)C)cccc2n1` [Compound 474, 2-N-(cyclopropylmethyl)-5-N-{[(1S,2R,5S)-6,6-dimethylbicyclo[3.1.1]hept-2-yl]methyl}-2-N-propylimidazo[1,2-a]pyridine-2,5-dicarboxamide]: below 2000 nM; for `CCCCN(CC)C(=O)c1cn2c(C(=O)NC[C@@H]3CC[C@H]4C[C@@H]3C4(C)C)cccc2n1` [Compound 475, 2-N-butyl-5-N-{[(1S,2R,5S)-6,6-dimethylbicyclo[3.1.1]hept-2-yl]methyl}-2-N-ethylimidazo[1,2-a]pyridine-2,5-dicarboxamide]: below 2000 nM.
With `CCN(CC)C(=O)c1cn2c(C(=O)NC[C@@H]3CC[C@H]4C[C@@H]3C4(C)C)cccc2n1` [Compound 477, 5-N-{[(1S,2R,5S)-6,6-dimethylbicyclo[3.1.1]hept-2-yl]methyl}-2-N,2-N-diethylimidazo[1,2-a]pyridine-2,5-dicarboxamide], the IC50 was below 2000 nM.
`CCOC(=O)CN(CC)C(=O)c1cn2c(C(=O)NC[C@@H]3CC[C@H]4C[C@@H]3C4(C)C)cccc2n1` [Compound 479, ethyl N-{[5-({[(1S,2R,5S)-6,6-dimethylbicyclo[3.1.1]hept-2-yl]methyl}carbamoyl)imidazo[1,2-a]pyridin-2-yl]carbonyl}-N-ethylglycinate]: the IC50 is below 2000 nM.
`COC(=O)C1CCCN1C(=O)c1cn2c(C(=O)NC[C@@H]3CC[C@H]4C[C@@H]3C4(C)C)cccc2n1` (stereo partly drawn) [Compound 480, methyl 1-{[5-({[(1S,2R,5S)-6.6-dimethylbicyclo[3.1.1]hept-2-yl]methyl}carbamoyl)imidazo[1,2-a]pyridin-2-yl]carbonyl}prolinate]: the IC50 is below 2000 nM.
The same measure, in the same setting: in the case of `COC(=O)CN(C)C(=O)c1cn2c(C(=O)NC[C@@H]3CC[C@H]4C[C@@H]3C4(C)C)cccc2n1` [Compound 481, methyl N-{[5-({[(1S,2R,5S)-6,6-dimethylbicyclo[3.1.1]hept-2-yl]methyl}carbamoyl)imidazo[1,2-a]pyridin-2-yl]carbonyl}-N-methylglycinate] it was below 2000 nM; in that of `CCOC(=O)CN(C)C(=O)c1cn2c(C(=O)NC[C@@H]3CC[C@H]4C[C@@H]3C4(C)C)cccc2n1` [Compound 482, ethyl N-{[5-({[(1S,2R,5S)-6,6-dimethylbicyclo[3.1.1]hept-2-yl]methyl}carbamoyl)imidazo[1,2-a]pyridin-2-yl]carbonyl}-N-methylglycinate], below 2000 nM; in that of `COCCN(C(=O)c1cn2c(C(=O)NC[C@@H]3CC[C@H]4C[C@@H]3C4(C)C)cccc2n1)C(C)C` [Compound 483, 5-N-{[(1S,2R,5S)-6,6-dimethylbicyclo[3.1.1]hept-2-yl]methyl}-2-N-isopropyl-2-N-(2-methoxyethyl)imidazo [1,2-a]pyridine-2,5-dicarboxamide], below 2000 nM.
`CC1(C)[C@H]2CC[C@@H](CNC(=O)c3cccc4nc(C(=O)N5CCC(F)(F)CC5)cn34)[C@@H]1C2` [Compound 485, 2-[(4,4-difluoropiperidin-1-yl)carbonyl]-N-{[(1S,2R,5S)-6,6-dimethylbicyclo[3.1.1]hept-2-yl]methyl} imidazo[1,2-a]pyridine-5-carboxamide]: the IC50 was below 2000 nM.
For `CC1(C)[C@H]2CC[C@@H](CNC(=O)c3cccc4nc(C(=O)N5CCC(C(F)(F)F)CC5)cn34)[C@@H]1C2` [Compound 488], the IC50 was below 2000 nM.
With `CO[C@H]1CCN(C(=O)c2cn3c(C(=O)NC[C@@H]4CC[C@H]5C[C@@H]4C5(C)C)cccc3n2)C1` [Compound 492, N-{[(1S,2R,5S)-6,6-dimethylbicyclo[3.1.1]hept-2-yl]methyl}-2-{[(3S)-3-methoxypyrrolidin-1-yl]carbonyl}imidazo [1,2-a]pyridine-5-carboxamide], the IC50 was below 2000 nM.
Turning to `COC1CCN(C(=O)c2cn3c(C(=O)NC[C@@H]4CC[C@H]5C[C@@H]4C5(C)C)cccc3n2)CC1` [Compound 493, N-{[(1S,2R,5S)-6,6-dimethylbicyclo [3.1.1]hept-2-yl]methyl}-2-[(4-methoxy-piperidin-1-yl)carbonyl] imidazo[1,2-a] pyridine-5-carboxamide], the IC50 was below 2000 nM.
The same measure, in the same setting: the same measure for `CC1(C)[C@H]2CC[C@@H](CNC(=O)c3cccc4nc(C(=O)N5CCC(F)CC5)cn34)[C@@H]1C2` [Compound 494, N-{[(1S,2R,5S)-6,6-dimethylbicyclo[3.1.1]hept-2-yl]methyl}-2-[(4-fluoropiperidin-1-yl)carbonyl]imidazo[1,2-a]pyridine-5-carboxamide]: below 2000 nM; for `CC1(C)[C@H]2CC[C@@H](CNC(=O)c3cccc4nc(C(=O)NC5CCC5)cn34)[C@@H]1C2` [Compound 495, 2-N-cyclobutyl-5-N-{[(1S,2R,5S)-6.6-dimethylbicyclo[3.1.1]hept-2-yl]methyl} imidazo[1,2-a]pyridine-2,5-dicarboxamide]: below 2000 nM.
As to `CC(C)CNC(=O)c1cn2c(C(=O)NC[C@@H]3CC[C@H]4C[C@@H]3C4(C)C)cccc2n1` [Compound 496, 5-N-{[(1S,2R,5S)-6,6-dimethylbicyclo[3.1.1]hept-2-yl]methyl}-2-N-isobutylimidazo[1,2-a]pyridine-2,5-dicarboxamide], the IC50 was below 2000 nM.
On the same count and under the same terms, in the case of `CC1(C)[C@H]2CC[C@@H](CNC(=O)c3cccc4nc(C(=O)NCC5CC5)cn34)[C@@H]1C2` [Compound 497, 2-N-(cyclopropylmethyl)-5-N-{[(1S,2R,5S)-6,6-dimethylbicyclo[3.1.1]hept-2-yl]methyl}imidazo[1,2-a]pyridine-2,5-dicarboxamide] it was below 2000 nM; in that of `CCCN(C)C(=O)CNC(=O)c1cn2c(C(=O)NC[C@@H]3CC[C@H]4C[C@@H]3C4(C)C)cccc2n1` [Compound 505, 5-N-{[(1S,2R,5S)-6,6-dimethylbicyclo[3.1.1]hept-2-yl]methyl}-2-N-{2-[methyl(propyl)amino]-2-oxoethyl}imidazo[1,2-a]pyridine-2,5-dicarboxamide], below 2000 nM.

The term IC50 denotes the concentration that inhibits the measured activity by half.
